# From patent US12642771B2, “Compositions comprising PGI2-receptor agonists and processes for the preparation thereof” (Arena Pharmaceuticals, Inc., priority 2017, dated 2026)
# Experiments:
# [1] = Release (dissolution) profile of modified-release tablets, USP Apparatus 1 (baskets) at 100 rpm, 500 mL aqueous sodium phosphate 0.05 M, pH 6.8; type: physicochemical
# Description: USP Apparatus 1 (BASKETS) is described, for example, in the United States Pharmacopeial Convention, Feb. 1, 2012, Chapter <711> (“Dissolution”), incorporated by reference herein in its entirety. See http://www.usp.org/sites/default/files/usp_pdf/EN/USPNF/revisions/m99470-gc_711.pdf. The USP Apparatus 1 (baskets) assembly consists of the following: a vessel, which may be covered, made of glass or other inert, transparent material; a motor; a metallic drive shaft, and a cylindrical basket. The materials should not sorb, react, or interfere with the specimen being tested. The vessel is partially immersed in a suitable water bath of any convenient size or heated by a suitable device such as a heating jacket. The water bath or heating device permits holding the temperature inside the vessel at 37±0.5° during the test and keeping the bath fluid in constant, smooth motion. No part of the assembly, including the environment in which the assembly is placed, contributes significant motion, agitation, or vibration beyond that due to the smoothly rotating stirring element. An apparatus that permits observation of the specimen and stirring element during the test is preferable. The vessel is cylindrical, with a hemispherical bottom and with one of the following dimensions and capacities: for a nominal capacity of 1 L, the height is 160 mm to 210 mm and its inside diameter is 98 mm to 106 mm; for a nominal capacity of 2 L, the height is 280 mm to 300 mm and its inside diameter is 98 mm to 106 mm; and for a nominal capacity of 4 L, the height is 280 mm to 300 mm and its inside diameter is 145 mm to 155 mm. Its sides are flanged at the top. A fitted cover may be used to retard evaporation. If a cover is used, it provides sufficient openings to allow ready insertion of the thermometer and withdrawal of specimens. The shaft is positioned so that its axis is not more than 2 mm at any point from the vertical axis of the vessel and rotates smoothly and without significant wobble that could affect the results. The vertical center line of the blade passes through the axis of the shaft so that the bottom of the blade is flush with the bottom of the shaft. A distance of 25±2 mm between the bottom of the blade and the inside bottom of the vessel is maintained during the test. The metallic or suitably inert, rigid blade and shaft comprise a single entity. A suitable two-part detachable design may be used provided the assembly remains firmly engaged during the test. […]
# The release profiles for modified-release tablets were measured using USP Apparatus 1 (baskets).
# All release profiles disclosed in Tables 6a-6d were measured with USP Apparatus 1 (baskets) at 100 rpm in 500 mL of aqueous sodium phosphate at a concentration of 0.05 M (pH=6.8). […]
# [2] = Example 7A: open-label single-dose pharmacokinetic study, modified-release tablet vs immediate-release capsule, fasted healthy subjects; type: in vivo, human
# Procedure: A. An open-label, fixed sequence, non-randomized study in two cohorts of healthy male and non-pregnant, non-lactating female subjects was conducted. Two cohorts with twelve subjects in each were enrolled to ensure data in ten evaluable subjects per cohort.
# Each subject in Cohort 1 received each of the following regimens, in the fasted state, in a sequential manner over four treatment periods: • Regimen A (0.03 mg immediate-release Compound 1): 1×0.03 mg Compound 1 immediate-release capsule. • Regimen B (0.06 mg modified-release Compound 1): 1×0.06 mg Compound 1 modified-release tablet as disclosed herein. • Regimen C (0.12 mg modified-release Compound 1): 2×0.06 mg Compound 1 modified-release tablets as disclosed herein. • Regimen D (0.18 mg modified-release Compound 1) 3×0.06 mg Compound 1 modified-release tablets as disclosed herein.
# Subjects received each regimen in the morning of Day 1, following an overnight fast of a minimum of 8 hours. PK samples were taken from subjects at 72 hours post-dose. There was a minimum washout period of 7 days between each administration of investigational medicinal product (IMP) (i.e., selexipag film-coated tablet(s), Compound 1 immediate-release capsule(s), and/or Compound 1 modified-release tablet(s)).
# Venous blood samples were withdrawn at regular time intervals. Plasma concentration data for Compound 1 and the selexipag parent and active metabolite were analyzed using appropriate non-compartmental techniques to obtain estimates of one or more of the following parameters:
# One or more of the above pharmacokinetic parameters were determined at one or more of the following time points: pre-dose and (referring to hours after administration): 0.5, 1, 1.5, 2, 3, 4, 5, 6, 8, 10, 12, 16, 20, 24, 36, 48, and 72 hours.
# [3] = Example 7B: open-label multiple-dose escalation pharmacokinetic study of modified-release tablet, fasted or fed healthy subjects; type: in vivo, human
# Procedure: B. A second open-label, non-randomized pharmacokinetic study was conducted in healthy subjects. Fasted (cohort 1; n=19) or fed state (cohort 2, n=18) subjects received a modified-release tablet formulation of Compound 1 in a dose escalation sequence over 25 days (once daily dosing started at 0.06 mg and was slowly titrated, depending upon individual subject tolerability, by additional 0.06 mg dose increments every 5 days up to 0.3 mg once daily).
# Each subject received a once daily dose of the modified-release Compound 1 for 5 days, with up to four sequential dose escalations every 5 days: • Regimen A (0.06 mg modified-release Compound 1): 1×0.06 mg Compound 1 modified-release tablet for 5 days • Regimen B (0.12 mg modified-release Compound 1): 2×0.06 mg Compound 1 modified-release tablet for 5 days • Regimen C (0.18 mg modified-release Compound 1): 3×0.06 mg Compound 1 modified-release tablet for 5 days • Regimen D (0.24 mg modified-release Compound 1): 4×0.06 mg Compound 1 modified-release tablet for 5 days • Regimen E (0.30 mg modified-release Compound 1): 5×0.06 mg Compound 1 modified-release tablet for 5 days
# [4] = Plasma pharmacokinetics of Compound 1 stated in background and description (initial clinical studies); type: in vivo; details: immediate-release capsule formulation
# [5] = modified-release compared to immediate-release formulation
# [6] = modified-release tablet (compared with immediate-release capsule)
smiles,measurement,setting,value
"O=C(O)COC[C@H]1CC[C@H](COC(=O)N(c2ccccc2)c2ccc(Cl)cc2)CC1 [Compound 1, 2-(((1r,4r)-4-(((4-chlorophenyl)(phenyl)carbamoyloxy)methyl)cyclohexyl)methoxy)acetic acid]","difference of % by weight released, initial profile vs after storage","[1]; tablets 0.05 mg and 0.5 mg Compound 1 (FIGS. 12, 13), storage at 40° C. and 75% RH for six months, any time point equal to or greater than 2 hours",≤ 10%
same,release rate relative to modified-release capsule,"[1]; tablets 0.5 mg Compound 1 with 40% HPMC K4M CR, 100 mg, 7 kP",faster than that of the modified-release capsule
same,release rate relative to modified-release capsule,"[1]; tablets with 30% HPMC K4M and 20% HPMC K100 LVCR, wet granulation",slightly faster than that of the modified-release capsule
same,release rate relative to modified-release capsule,"[1]; tablets with 40% HPMC K4M and 10% HPMC K100 LVCR, wet granulation",faster than that of the modified-release capsule at time points <6 hrs but slower than that of the modified-release capsule at time points 6 hrs
same,Relative bioavailability based on individual dose-adjusted Cmax,"[2]; 0.06, 0.12 and 0.18 mg modified-release tablet vs immediate-release capsule",statistically significantly lower
same,Relative bioavailability based on individual dose-adjusted ratios of AUC(0-last),[2]; 0.06 and 0.12 mg modified-release tablet vs immediate-release capsule,statistically significantly lower
same,"Dose-adjusted peak plasma exposure (Cmax/D), geometric mean ratio",[2]; [5],28.7-41.2%
same,"Dose-adjusted total plasma exposure (AUC/D), geometric mean ratio",[2]; [5],63.3-97.9%
same,Cmax,[2]; [6],reduced the Cmax
same,Tmax,[2]; [6],increased Tmax
same,total plasma concentrations,[2]; [6],substantially maintaining similar total plasma concentrations
same,Plasma concentrations at 24 hours post-dose,[2]; modified-release tablet compared to immediate release-formulation,higher
same,"Systemic exposure (Cmax and AUC), dose proportionality",[2]; oral modified-release tablet formulation,increased in a slightly higher than dose-proportional manner
same,Exposure in the fed and fasted states,[3]; after single administration and at steady state,similar
same,"increase of Cmax at steady state, female vs male subjects",[3]; modified-release tablet,greater than 42%
same,"mean plasma exposure measures, females compared to males",[3]; modified-release tablet once daily,Somewhat higher
same,peak-trough fluctuation,"[3]; modified-release tablet once daily, across dose levels",low peak-trough fluctuation
same,"Tmax, fed state","[3]; modified-release tablet, fed vs fasted",delayed in the fed state
same,Cmax and peak-trough fluctuation,[4],high Cmax and peak-trough fluctuation
